Laboratory results from patent US11464770B2, “Anticancer pharmaceutical composition” (NATIONAL CANCER CENTER, priority 2016, dated 2022).
Like-named read-outs stand apart in the source and are kept apart here.

Legend:
[1] = tested on: blood cancer cell lines (e.g. HL-60, Jurkat, Raji, Ramos, Daudi, MOLT-4); test: Cell based assay, cell viability (CellTiter-Glo), blood cancer cell lines; conditions: Homo sapiens
Protocol: (§1) Commercially available bladder cancer, prostate cancer, lung cancer, breast cancer, blood cancer, pancreatic cancer, colorectal cancer, brain cancer, neuroblastoma, melanoma, liver cancer, cervical carcinoma, ovarian cancer, renal cancer, and papilloma cell lines were each treated with trypsin-EDTA and cultured, followed by being seeded in each well of a 96 well plate. After 24 hours of treatment at constant temperature, the respective cells were treated with the candidate compound so that a final concentration became 0 to 2 μM. The treated cells were additionally cultured for 72 hours, and cell viability was measured by using an ATP detection method (CellTiter-Glo® Luminescent Cell Viability Assay, Promega).

[2] = tested on: brain cancer cell lines; test: Cell based assay, cell viability (CellTiter-Glo), brain cancer cell lines; conditions: Homo sapiens
Protocol: as §1, with “After 24 hours of treatment at constant temperature, the respective cells were treated with the candidate compound so that a final concentration became 0 to 2 μM.” left out

[3] = tested on: RT4: human urinary bladder transitional cell papilloma; test: Cell based assay, cytotoxicity in RT4 papilloma cells (selectivity); conditions: Homo sapiens, RT-4; RT4 cells
Protocol: as §1, with “After 24 hours of treatment at constant temperature, the respective cells were treated with the candidate compound so that a final concentration became 0 to 2 μM.” left out

[4] = tested on: prostate cancer cell lines (e.g. DU145/TXR); test: Cell based assay, cell viability (CellTiter-Glo), prostate cancer cell lines; conditions: Homo sapiens, 72 hours treatment, final concentration 0 to 2 μM
Protocol: as §1

[5] = MV4-11, blood cancer cell line MV-4-11, 72 hours, read-out: IC50, MV-4-11
[6] = blood cancer cell line Daudi, 72 hours, read-out: IC50, Daudi
[7] = blood cancer cell line HL-60, 72 hours, read-out: IC50, HL-60
[8] = blood cancer cell line Jurkat, 72 hours, read-out: IC50, Jurkat
[9] = blood cancer cell line MOLT-4, 72 hours, read-out: IC50, MOLT-4
[10] = blood cancer cell line Raji, 72 hours, read-out: IC50, Raji
[11] = blood cancer cell line Ramos (RA 1), 72 hours, read-out: IC50, Ramos (RA 1)
[12] = blood cancer cell line U-937, 72 hours, read-out: IC50, U-937
[13] = U138-MG, U-138 MG cell line, read-out: IC50, Brain cancer cell line U-138 MG
[14] = T98G cell line, read-out: IC50, Brain cancer cell line T98G
[15] = U-251 MG cell line, read-out: IC50, Brain cancer cell line U-251 MG
[16] = CWR22 cells, read-out: IC50, prostate cancer cell line CWR22
[17] = DU-145, DU145/TXR cells, read-out: IC50, prostate cancer cell line DU145/TXR
[18] = DU-145, DU145 cells, read-out: IC50, prostate cancer cell line DU145
[19] = LNcap cells, read-out: IC50, prostate cancer cell line LNcap
[20] = PC-3 cells, read-out: IC50, prostate cancer cell line PC-3

IC50 [1, 5] [nM] | IC50 [1, 6] [nM] | IC50 [1, 7] [nM] | IC50 [1, 8] [nM] | IC50 [1, 9] [nM] | IC50 [1, 10] [nM] | IC50 [1, 11] [nM] | IC50 [1, 12] [nM] | IC50 [2, 13] [nM] | IC50 [2, 14] [nM] | IC50 [2, 15] [nM] | IC50 [4, 16] [nM] | IC50 [4, 17] [nM] | IC50 [4, 18] [nM] | IC50 [4, 19] [nM] | IC50 [4, 20] [nM] | Structure (SMILES) | IC50 [3] [nM]
1390 | > 2000 | 1720 | > 2000 | 1850 | > 2000 | > 2000 | > 2000 | > 2000 | > 10000 | > 2000 | 1830 | 1650 | 1900 | > 2000 | 1640 | CC(=O)c1c([S+](C)[O-])[nH]c2c(Br)ccc(Cl)c2c1=O (stereo not shown) [Compound 1, 3-acetyl-8-bromo-5-chloro-2-(methylsulfinyl)quinolin-4(1H)-one] | > 10000
> 2000 | > 2000 | > 2000 | > 2000 | > 2000 | > 2000 | > 2000 | > 2000 | > 10000 | > 10000 | > 2000 | > 2000 | > 2000 | > 2000 | > 2000 | > 2000 | CSc1[nH]c2c(Br)ccc(Cl)c2c(=O)c1C(C)=O [Compound 2, 3-acetyl-8-bromo-5-chloro-2-(methylthio)quinolin-4(1H)-one] | > 10000
> 2000 | > 2000 | > 2000 | > 2000 | > 2000 | > 2000 | > 2000 | > 2000 | > 10000 | > 10000 | > 2000 | > 2000 | > 2000 | > 2000 | > 2000 | > 2000 | CC(=O)c1c(SCc2ccccc2)[nH]c2c(Br)ccc(Cl)c2c1=O [Compound 3, 3-acetyl-2-(benzylthio)-8-bromo-5-chloroquinolin-4(1H)-one] | > 10000
> 2000 | > 2000 | > 2000 | > 2000 | > 2000 | > 2000 | > 2000 | > 2000 | > 10000 | > 10000 | > 2000 | > 2000 | > 2000 | > 2000 | > 2000 | > 2000 | CSc1c(C(C)=O)c(=O)c2c(Cl)ccc(Br)c2n1C [Compound 5, 3-acetyl-8-bromo-5-chloro-1-methyl-2-(methylthio)quinolin-4(1H)-one] | > 10000
1260 | > 2000 | 1650 | > 2000 | 1690 | > 2000 | > 2000 | > 2000 | > 2000 | > 10000 | > 2000 | 1990 | 1540 | 1800 | > 2000 | 1680 | CC(=O)c1c([S+](C)[O-])[nH]c2c(Cl)ccc(Cl)c2c1=O (stereo not shown) [Compound 6, 3-acetyl-5,8-dichloro-2-(methylsulfinyl)quinolin-4(1H)-one] | > 10000
> 2000 | > 2000 | > 2000 | > 2000 | > 2000 | > 2000 | > 2000 | > 2000 | > 10000 | > 10000 | > 2000 | > 2000 | > 2000 | > 2000 | > 2000 | > 2000 | CSc1c(C(C)=O)c(=O)c2cc(F)ccc2n1C [Compound 7, 3-acetyl-6-fluoro-1-methyl-2-(methylthio)quinolin-4(1H)-one] | > 10000
> 2000 | > 2000 | > 2000 | > 2000 | > 2000 | > 2000 | > 2000 | > 2000 | > 10000 | > 10000 | > 2000 | > 2000 | > 2000 | > 2000 | > 2000 | > 2000 | CSc1[nH]c2ccc(F)cc2c(=O)c1C(C)=O [Compound 8, 1-(6-fluoro-4-hydroxy-2-(methylthio)quinolin-3-yl)ethan-1-one] | > 10000
1090 | 1990 | 1200 | 1050 | 1250 | 1140 | 1550 | 1060 | 1260 | > 10000 | > 2000 | 1600 | 1350 | 1590 | > 2000 | 1470 | CC(=O)c1c([S+](C)[O-])n(C(=O)c2ccc(Br)cc2)c2c(Br)ccc(Cl)c2c1=O (stereo not shown) [Compound 9, 3-acetyl-8-bromo-1-(4-bromobenzoyl)-5-chloro-2-(methylsulfinyl)quinolin-4(1H)-one] | > 10000
> 2000 | > 2000 | > 2000 | > 2000 | > 2000 | > 2000 | > 2000 | > 2000 | > 10000 | > 10000 | > 2000 | > 2000 | > 2000 | > 2000 | > 2000 | > 2000 | CC(=O)c1c(SCc2ccc(Cl)cc2)[nH]c2c(Br)ccc(Cl)c2c1=O [Compound 10, 3-acetyl-8-bromo-5-chloro-2-((4-chlorobenzyl)thio)quinolin-4(1H)-one] | > 10000
> 2000 | > 2000 | > 2000 | > 2000 | > 2000 | > 2000 | > 2000 | > 2000 | > 2000 | > 10000 | > 2000 | > 2000 | 1810 | > 2000 | > 2000 | > 2000 | CC(=O)c1c([S+]([O-])Cc2ccc(Cl)cc2)[nH]c2c(Br)ccc(Cl)c2c1=O (stereo not shown) [Compound 11, 3-acetyl-8-bromo-5-chloro-2-((4-chlorobenzyl)sulfinyl)quinolin-4(1H)-one] | > 10000
> 2000 | > 2000 | > 2000 | > 2000 | > 2000 | > 2000 | > 2000 | > 2000 | > 10000 | > 10000 | > 2000 | > 2000 | > 2000 | > 2000 | > 2000 | > 2000 | CC(=O)c1c(Sc2ccccc2)[nH]c2c(Br)ccc(Cl)c2c1=O [Compound 12, 3-acetyl-8-bromo-5-chloro-2-(phenylthio)quinolin-4(1H)-one] | > 10000
> 2000 | > 2000 | > 2000 | > 2000 | > 2000 | > 2000 | > 2000 | > 2000 | > 10000 | > 10000 | > 2000 | > 2000 | > 2000 | > 2000 | > 2000 |  | CC(=O)c1c([S+]([O-])c2ccccc2)[nH]c2c(Br)ccc(Cl)c2c1=O (stereo not shown) [Compound 13, 3-acetyl-8-bromo-5-chloro-2-(phenylsulfinyl)quinolin-4(1H)-one] | > 10000
> 2000 | > 2000 | > 2000 | > 2000 | > 2000 | > 2000 | > 2000 | > 2000 | > 10000 | > 10000 | > 2000 | > 2000 | > 2000 | > 2000 | > 2000 | > 2000 | COc1ccccc1Sc1[nH]c2c(Br)ccc(Cl)c2c(=O)c1C(C)=O [Compound 14, 3-acetyl-8-bromo-5-chloro-2-((2-methoxyphenyl)thio)quinolin-4(1H)-one] | > 10000
> 2000 | > 2000 | > 2000 | > 2000 | > 2000 | > 2000 | > 2000 | > 2000 | > 2000 | > 10000 | > 2000 | > 2000 | 1880 | > 2000 | > 2000 |  | COc1ccccc1[S+]([O-])c1[nH]c2c(Br)ccc(Cl)c2c(=O)c1C(C)=O (stereo not shown) [Compound 15, 3-acetyl-8-bromo-5-chloro-2-((2-methoxyphenyl)sulfinyl)quinolin-4(1H)-one] | > 10000
> 2000 | > 2000 | > 2000 | > 2000 | > 2000 | > 2000 | > 2000 | > 2000 | > 10000 | > 10000 | > 2000 | > 2000 | > 2000 | > 2000 | > 2000 | > 2000 | CC(=O)c1c(Sc2ccc(Br)cc2)[nH]c2c(Br)ccc(Cl)c2c1=O [Compound 16, 3-acetyl-8-bromo-2-((4-bromophenyl)thio)-5-chloroquinolin-4(1H)-one] | > 10000
> 2000 | > 2000 | > 2000 | > 2000 | > 2000 | > 2000 | > 2000 | > 2000 | > 10000 | > 10000 | > 2000 | > 2000 | > 2000 | > 2000 | > 2000 |  | CC(=O)c1c([S+]([O-])c2ccc(Br)cc2)[nH]c2c(Br)ccc(Cl)c2c1=O (stereo not shown) [Compound 17, 3-acetyl-8-bromo-2-((4-bromophenyl)sulfinyl)-5-chloroquinolin-4(1H)-one] | > 10000

Structure (SMILES) | IC50 [1, 5] [nM] | IC50 [1, 6] [nM] | IC50 [1, 7] [nM] | IC50 [1, 8] [nM] | IC50 [1, 9] [nM] | IC50 [1, 10] [nM] | IC50 [1, 11] [nM] | IC50 [1, 12] [nM] | IC50 [2, 13] [nM] | IC50 [2, 14] [nM] | IC50 [2, 15] [nM] | IC50 [4, 16] [nM] | IC50 [4, 17] [nM] | IC50 [4, 18] [nM] | IC50 [4, 19] [nM] | IC50 [4, 20] [nM] | IC50 [3] [nM]
CC(=O)c1c([S+]([O-])Cc2ccccc2)nc2c(Br)ccc(Cl)c2c1O (stereo not shown) [Compound 4] | 1610 | > 2000 | 1980 | 1070 | 1370 | 1150 | 1760 | 1240 | 1810 | > 10000 | 1220 | 1670 | 1190 | 1410 | > 2000 | 1520 | > 10000
